Legend:
Assay type in all cases: in vivo, human
[1] = test system: influenza vaccine strains and heterologous influenza strains; experiment: Influenza geometric mean titers 4 weeks after vaccination in RAD001 cohorts; settings: relative to placebo
Excerpt: FIGS. 41A and 41B. […] In FIG. 41A, the increase above baseline in influenza geometric mean titers to each of the 3 influenza vaccine strains (H1N1 A/California/07/2009, H3N2 A/Victoria/210/2009, B/Brisbane/60/2008) relative to the increase in the placebo cohort 4 weeks after vaccination is shown for each of the RAD001 dosing cohorts in the intention to treat population. […] FIG. 41B is a graph of the same data as in FIG. 41A for the subset of subjects with baseline influenza titers <=1:40.
The increase above baseline in influenza geometric mean titers to 2 heterologous influenza strains (A/H1N1 strain A/New Jersey/8/76 and A/H3N2 strain A/Victoria/361/11) not contained in the influenza vaccine relative to the increase in the placebo cohort 4 weeks after vaccination is shown for each of the RAD001 dosing cohorts in the intention to treat population. * indicates increase in titer relative to placebo exceeds 1 with a posterior probability of at least 80%.

[2] = Exercise and energy in elderly subjects
H3N2 A/Victoria/210/2009 = experiment: Hemagglutination inhibition titers after influenza vaccination, A/H3N2 vaccine strain; settings: for HI GMT ratio (CV %) A/H3N2: GMT at week 4 post vaccination/GMT at baseline
Procedure: The trial was observer-blind because the placebo in the RAD001 0.5 mg daily and 20 mg weekly cohorts differed slightly from the RAD001 tablets in those cohorts. […] The treatment duration for all cohorts was 6 weeks during which time subjects underwent safety evaluations in the clinic every 2 weeks. After subjects had been dosed for 4 weeks, RAD001 steady state levels were measured pre-dose and at one hour post dose. After completing the 6 week course of study drug, subjects were given a 2 week drug free break to reverse any possible RAD001-induced immunosuppression, and then were given a 2012 seasonal influenza vaccination (Agrippal®, Novartis Vaccines and Diagnostics, Siena, Italy) containing the strains H1N1 A/California/07/2009, H3N2 A/Victoria/210/2009, B/Brisbane/60/2008. Four weeks after influenza vaccination, subjects had serum collected for influenza titer measurements. Antibody titers to the 3 influenza vaccine strains as well as to 2 heterologous strains (A/H1N1 strain A/New Jersy/8/76 and A/H3N2 strain A/Victoria/361/11) were measured by standard hemagglutination inhibition assay (Kendal, A P et al. (1982) Concepts and procedures for laboratory-based influenza surveillance. Atlanta: Centers for Disease Control and Prevention B17-B35). Levels of IgG and IgM specific for the A/H1N1/California/07/2009 were measured in serum samples taken before and 4 weeks after influenza vaccination as described previously (Spensieri, F. et al. (2013) Proc. Natl. Acad. Sci. USA 110:14330-14335). Results were expressed as fluorescence intensity.
The primary analysis of geometric mean titer ratios was done using a normal Bayesian regression model with non-informative priors. This model was fitted to each antibody titer on the log scale. The primary outcome in each model was the Day 84 measurement. The Day 63 measurement was included in the outcome vector. The model fitted using SAS 9.2 proc mixed with the prior statement. The covariance structure of the matrix was considered as unstructured (option type=UN). A flat prior was used. For the secondary analysis of seroconversion rates, logistic regression was used.
(§1) The ability of RAD001 to improve immune function in elderly volunteers was evaluated by measuring the serologic response to the 2012 seasonal influenza vaccine. The hemagglutination inhibition (HI) geometric mean titers (GMT) to each of the 3 influenza vaccine strains at baseline and 4 weeks after influenza vaccination are provided in Table 6. The primary analysis variable was the HI GMT ratio (4 weeks post vaccination/baseline). […] This endpoint was chosen because a 1.2-fold increase in the influenza GMT ratio induced by the MF-59 vaccine adjuvant was associated with a decrease in influenza illness (Iob, A et al. (2005) Epidemiol Infect 133:687-693).
Rates of seroconversion 4 weeks after influenza vaccination were also evaluated. Seroconversion was defined as the change from a negative pre-vaccination titer (i.e., HI titer <1:10) to post-vaccination HI titer ≥1:40 or at least 4-fold increase from a non-negative (>1:10) pre-vaccination HI titer.

[3] = test system: influenza vaccine strains; experiment: Primary endpoint: HI GMT ratio relative to placebo in at least 2 of 3 influenza vaccine strains; settings: ITT population
Procedure: as §1
Elderly volunteers >=65 years of age were randomized to one of the 3 RAD001 treatment groups (50 subjects per arm) or placebo (20 subjects per arm). Subjects were treated with study drug for 6 weeks, given a 2 week break, and then received influenza (Aggrippal, Novartis) and pneumoccal (Pneumovax 23, Merck), vaccinations. Response to influenza vaccination was assessed by measuring the geometric mean titers (GMTs) by hemagglutination inhibition assay to the 3 influenza strains (H1N1, H3N2 and B influenza subtypes) in the influenza vaccine 4 weeks after vaccination. […] Antibody titers to 7 of the serotypes were measured in our subjects.

With CO[C@H]1C[C@@H]2CC[C@@H](C)[C@@](O)(O2)C(=O)C(=O)N2CCCC[C@H]2C(=O)O[C@H]([C@H](C)C[C@@H]2CC[C@@H](OCCO)[C@H](OC)C2)CC(=O)[C@H](C)/C=C(\C)[C@@H](O)[C@@H](OC)C(=O)[C@H](C)C[C@H](C)/C=C/C=C/C=C/1C [RAD001, (1R,9S,12S,15R,16E,18R,19R,21R,23S,24E,26E,28E,30S,32S,35R)-1,18-dihydroxy-12-{(1R)-2-[(1S,3R,4R)-4-(2-hydroxyethoxy)-3-methoxycyclohexyl]-1-methylethyl}-19,30-dimethoxy-15,17,21,23,29,35-hexamethyl-11,36-dioxa-4-azatricyclo[30.3.1.0^4,9]hexatriaconta-16,24,26,28-tetraene-2,3,10,14,20-pentaone] the “titers to heterologous influenza strains” value [1] was “increase in titers to heterologous influenza strains as compared to placebo”, the “titers to influenza vaccine strains” value [1] was “increase in titers to influenza vaccine strains as compared to placebo” and the exercise and energy [2] was “increases in exercise and energy”. For the same compound, the “HI GMT (CV %) A/H3N2” value (H3N2 A/Victoria/210/2009; Baseline (2 weeks prior to influenza vaccination), RAD001 0.5 mg daily) was 106.8 (168.2), the “HI GMT (CV %) A/H3N2” value (H3N2 A/Victoria/210/2009; Baseline (2 weeks prior to influenza vaccination), RAD001 5 mg weekly) was 126.04 (162.6) and the “HI GMT (CV %) A/H3N2” value (H3N2 A/Victoria/210/2009; Baseline (2 weeks prior to influenza vaccination), RAD001 20 mg weekly) was 137.1 (211.5). The “HI GMT ratio (CV %) A/H3N2” value (H3N2 A/Victoria/210/2009; RAD001 0.5 mg daily) was 2.1 (152.6), the “HI GMT ratio (CV %) A/H3N2” value (H3N2 A/Victoria/210/2009; RAD001 5 mg weekly) was 2.0 (189.2) and the “HI GMT ratio (CV %) A/H3N2” value (H3N2 A/Victoria/210/2009; RAD001 20 mg weekly) was 2.1 (277.3). For the same compound, the “Percent of subjects with seroconversion to influenza 4 weeks after vaccination, H3N2” value (shortened to “Percent of subjects with seroconversion”) (H3N2 A/Victoria/210/2009; Intention to Treat Population, 0.5 mg) was 27%, the “Percent of subjects with seroconversion” value (H3N2 A/Victoria/210/2009; Intention to Treat Population, 5 mg) was 24% and the “Percent of subjects with seroconversion” value (H3N2 A/Victoria/210/2009; Intention to Treat Population, 20 mg) was 25%. For the same compound, the “Percent of subjects with seroconversion” value (H3N2 A/Victoria/210/2009; Subjects with Baseline Titers <=40, 0.5 mg) was 64%, the “Percent of subjects with seroconversion” value (H3N2 A/Victoria/210/2009; Subjects with Baseline Titers <=40, 5 mg) was 53% and the “Percent of subjects with seroconversion” value (H3N2 A/Victoria/210/2009; Subjects with Baseline Titers <=40, 20 mg) was 71%. For the same compound, the “HI GMT (CV %) A/H3N2” value (H3N2 A/Victoria/210/2009; Week 4 after influenza vaccination, RAD001 0.5 mg daily) was 194.4 (129.1), the “HI GMT (CV %) A/H3N2” value (H3N2 A/Victoria/210/2009; Week 4 after influenza vaccination, RAD001 5 mg weekly) was 223.0 (118.8) and the “HI GMT (CV %) A/H3N2” value (H3N2 A/Victoria/210/2009; Week 4 after influenza vaccination, RAD001 20 mg weekly) was 223.0 (163.6). For the same compound, the “primary endpoint of the study (HI GMT ratio)” value ([3]; 0.5 mg daily or 5 mg weekly) was “met the GMT primary endpoint” and the “primary endpoint of the study (HI GMT ratio)” value ([3]; 20 mg weekly) was “but not higher dose (20 mg weekly) cohort met the primary endpoint”.
